Experiment: Moisture uptake by dynamic vapor sorption (DVS)
Type: physicochemical

What does the source list for mPEG7-O-naloxol phosphate salt?
Hysteresis between adsorption and desorption (DVS) (desorption): no hysteresis; Moisture uptake, DVS isotherm curve (whole isotherm): continuous (exponential) moisture uptake from the start
